We go through 4 compounds from patent US7795505B2, “Herbicide-resistance gene and utilization thereof” (Hokko Chemical Industry Co., Ltd., priority 2004, dated 2010).

The subject of data set [1] is enzyme capable of acetylating PPT derived from actinomycete AB2253 strain (pUC19-AB). The data set can be described thus: Acetylation reaction with crude enzyme solution from E. coli transformed with pUC19-AB. It is filed as biochemical. Particulars: substrate specificity, vector pUC19-AB (control).
Protocol: (§1) Escherichia coli transformed with pUC18-B2 having the herbicide-resistance gene of the present invention was inoculated into a liquid medium containing 50 ml of LB medium and 50 mg/L ampicillin, and cultured at 37° C. for 1 hour, and 50 μl of a 1 M thiogalactopyranoside solution was added to the culture solution, followed by culture at 37° C. for 3 hours. After completion of the culture, the culture solution was centrifuged at 5,000 rpm for 15 minutes to collect bacterial cells, and the cells were washed once with physiological saline. Then, the washed bacterial cells were suspended in 2 ml of a 20 mM Trisbuffer (pH 8.0) solution and disrupted by ultrasonic waves at 4° C. The solution was centrifuged at 15,000 rpm for 15 minutes to collect the supernatant. The supernatant was diluted 10-fold with 20 mM Tris buffer (pH 8.0) to prepare a crude enzyme solution. Then, 2 μl of the crude solution was added to 98 μl of a reaction solution, and the mixture was allowed to react at 28° C. for 1 hour, followed by measurement of the absorbance at 412 nm to measure the acetylation reaction. […]
(§2) The optimum pH and substrate specificity (Km value) to PPT and a structural homologue thereof, methionine sulfone (MS) were measured, and the results are shown in Table 2.
In data set [2] the test system is enzyme capable of acetylating PPT of Streptomyces sp. AB3534 strain (pUC18-B2). The data set can be described thus: Acetylation reaction with crude enzyme solution from E. coli transformed with pUC18-B2 (absorbance at 412 nm). The data set is classed as biochemical. Particulars: substrate specificity, vector pUC18-B2 (present invention).
Protocol: as §1, §2
Data set [3] deals with Streptomyces lividans introduced with hybrid plasmid pBRB1. The data set can be described thus: Bialaphos resistance of transformants. It is filed as cell-based. The settings on record: all transformants with pBRB1. The procedure:
The hybrid plasmid mixture thus obtained was used to transform a protoplast of Streptomyces lividans. The protoplast was regenerated, and then transformed strains having a bialaphos resistance were selected on a selective medium containing 10 mg/L bialaphos. The Streptomyces lividans used above as a host is a bacterial strain obtained by removing a plasmid pIJ703 from Streptomyces lividans 3131 by protoplastization and regeneration. Streptomyces lividans 3131 was obtained from Department of Antibiotics, National Institute of Health in 1985 (“The Journal of Antibiotics” 1985, vol. 38, pp. 390-400). […]
From the resultant two bialaphos-resistant strains, plasmids were extracted in accordance with a known method (“Current Topics in Microbiology and Immunology” 1982, vol. 96, pp. 69). […] These plasmids derived from the two strains were separately cleaved with a restriction enzyme BglII and analyzed by agarose electrophoresis. In both cases, the electrophoresis detected not only the DNA fragment of pIJ703 used in the vector but also an about 5.7-kb DNA fragment. […]

The test system of data set [4] is Escherichia coli transformed with pUC18-B1. The data set can be described thus: Growth on M9 agar medium containing bialaphos. It is filed as cell-based. The settings on record: 1 mM IPTG, 10 mg/L bialaphos. The procedure: The about 1.2-kb EcoRI-BglII fragment that had been confirmed to have a bialaphos-resistance gene was ligated to the EcoRI-BamHI site of a commercially available plasmid vector pUC18, and the resultant plasmid was introduced into Escherichia coli, to thereby yield a transformed Escherichia coli strain having a resistance to bialaphos. A deletion plasmid was prepared by using the SmaI site in the about 1.2-kb EcoRI, BglII fragment and was used to transform Escherichia coli, and as a result, the herbicide-resistance gene of the present invention was confirmed to be present on an about 0.6-kb EcoRI-SmaI fragment. 2 μg of the hybrid plasmid pBRB1 was cleaved with restriction enzymes EcoRI and BglII (20 units each) at 37° C. for 2 hours and subjected to agarose electrophoresis, and only a 1.2 kb-fragment was cut and purified using GeneClean. On the other hand, 2 μg of the plasmid pUC18 was cleaved with EcoRI and BamHI (20 units each) at 37° C. for 2 hours, and the fragments were purified using GeneClean (manufactured by Bio101). […]
That is, the plasmid pUC18-B1 was cleaved with restriction enzymes EcoRI and SmaI (20 units each) at 37° C. for 2 hours and subjected to agarose electrophoresis, and only a 0.6 kb-fragment was cut and purified using GeneClean. […] The nucleotide sequence was determined by custom DNA sequencing service (Hokkaido System Science Co., Ltd.).

The test system of data set [5] is Escherichia coli transformed with pUC18-B2. Put plainly: Growth on M9 agar medium containing bialaphos. It is filed as cell-based. Particulars: 1 mM IPTG, 10 mg/L bialaphos. As to the method:
That is, the plasmid pUC18-B1 was cleaved with restriction enzymes EcoRI and SmaI (20 units each) at 37° C. for 2 hours and subjected to agarose electrophoresis, and only a 0.6 kb-fragment was cut and purified using GeneClean. On the other hand, 2 μg of the plasmid pUC18 was cleaved with EcoRI and SmaI (20 units each) at 37° C. for 2 hours, and the fragments were purified using GeneClean (manufactured by Bio101). The DNA fragments were allowed to react using Takara Ligation kit at 16° C. for 3 hours, to thereby yield a solution of the plasmid pUC18-B2 obtained by integrating the about 0.6-kb EcoRI, SmaI-cleaved DNA fragment derived from pBRB1 into the EcoRI, SmaI-cleaved DNA fragment of the plasmid pUC18. […] The nucleotide sequence was determined by custom DNA sequencing service (Hokkaido System Science Co., Ltd.).

The test system of data set [6] is CP(=O)(O)CC[C@H](N)C(=O)O. Put plainly: cells, lysate or membranes named. Particulars: other: substrate specificity; crude enzyme, vector pUC19-SH (control); pH 8.0.
Protocol: as §1, §2

`CP(=O)(O)CC[C@H](N)C(=O)O` (racemic) [PPT, phosphinothricin]: the Michaelis-Menten constant (Km) was 14300 µM in data set [1] and 2460 µM in data set [2].

In the case of `CS(=O)(=O)CC[C@H](N)C(=O)O` [MS, methionine sulfone], the Km in data set [1] amounted to 2200 µM; in data set [2] it was 13000 µM.

For the compound `C[C@H](NC(=O)[C@H](C)NC(=O)[C@@H](N)CCP(C)(=O)O)C(=O)O` [bialaphos], the “resistance of transformants to bialaphos” value in data set [3] was “all the resultant transformants were found to have a resistance to bialaphos”. Also, the “growth on medium containing bialaphos” value in data set [4] and in data set [5] was “found to grow” throughout.

Regarding “enzyme capable of acetylating PPT derived from Streptomyces hygroscopicus (pUC19-SH) (Streptomyces hygroscopicus)”, the Km in data set [6] is 90 µM.

In general, Km refers to the substrate concentration at which the rate is half of its maximum.
